Measurements published in PubChem BioAssay (NCI).
Values joined by “and” are separate entries in the source; they are usually repeats but may differ in a detail not shown here. Equal entries are not always repeated.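 Each compound was tested at five concentrations against cells in 96-well plates for 48 hours. Abbreviation: GI50, concentration required for 50% inhibition of growth. TGI: total growth inhibition.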

Legend:
Test in all cases: inhibition of tumour cell growth, NCI panel, 48 h
[1] = tested on: A498 renal
[2] = tested on: HCT-116 colon
[3] = tested on: KM12 colon
[4] = tested on: NCI-H522 lung
[5] = tested on: RXF 393 renal
[6] = tested on: SF-268 CNS
[7] = tested on: SNB-75 CNS
[8] = tested on: SW-620 colon
[9] = tested on: HCC-2998 colon
[10] = tested on: UACC-257 melanoma

Compound	TGI [1] [µM]	TGI [2]	TGI [3] [µM]	TGI [4]	TGI [5]	TGI [6]	TGI [7] [µM]	TGI [8] [µM]	TGI [9] [µM]	TGI [10] [µM]	GI50 [1] [µM]	GI50 [9] [µM]	GI50 [2] [µM]	GI50 [3] [µM]	GI50 [4] [µM]	GI50 [6] [µM]	GI50 [7] [µM]	GI50 [8] [µM]	GI50 [10] [µM]	GI50 [5] [µM]
Cc1cc(C)c(C(=O)c2no[n+]([O-])c2C(=O)c2c(C)cc(C)c(Br)c2C)c(C)c1Br	32.6	21.9 µM	26.4	23.4 µM	19.9 µM	29.8 µM	25.8	26.9	–	–	–	–	–	–	–	–	–	–	–	–
CN1CC[C@]2(C)c3ccc(O)cc3CC3CCCC1C32C (stereo not given in full)	> 100	> 100 µM	> 100	> 100 µM	> 100 µM	> 100 µM	> 100	–	> 100	> 100	–	–	–	–	–	–	–	–	–	–
NC(=S)NNc1c([N+](=O)[O-])cnn(-c2ccccc2)c1=O	–	22.1 µM	28.2	33.6 µM	33.9 µM	40.6 µM	34.1	26.4	33	38.8	–	–	–	–	–	–	–	–	–	–
O=C1C(c2ccccc2)=[N+]([O-])c2ccccc21	34	> 100 µM	55.2	–	–	27.4 µM	37.5	22.3	38.8	26.1	–	–	–	–	–	–	–	–	–	–
O=c1cccc(C2CC(CO)C3CCCCN3C2)[nH]1 (stereo not given)	> 100	> 100 µM	> 100	> 100 µM	–	> 100 µM	> 100	> 100	> 100	> 100	–	–	–	–	–	–	–	–	–	–
CCN(CC)C(=S)Oc1cc2oc(=O)cc(C)c2cc1Cl	> 100	> 100 µM	> 100	> 100 µM	> 100 µM	> 100 µM	–	> 100	> 100	> 100	–	–	–	–	–	–	–	–	–	–
CC[O-].CC[O-].O=S(=O)([O-])c1ccc([O-])c2ncccc12.O=S(=O)([O-])c1ccc([O-])c2ncccc12.[Ti+4]	> 100	> 100 µM	> 100	> 100 µM	–	> 100 µM	> 100	> 100	> 100	> 100	> 100	68.2	41.1	96.5	32.8	42.1	72.8	> 100	43.7	–
Cc1cc2c(cc1Cl)SC1=NN(C)C(N(C)C)N1S2(=O)=O (stereo not given)	> 100	> 100 µM	> 100	> 100 µM	–	> 100 µM	> 100	> 100	> 100	> 100	63.4	> 100	> 100	> 100	> 100	> 100	86.4	> 100	> 100	–
Cc1ccccc1C1=C(C(=O)Nc2ccc(Cl)c(Cl)c2)NC(=S)NC1N (stereo not given)	> 100	> 100 µM	> 100	> 100 µM	> 100 µM	> 100 µM	> 100	> 100	–	> 100	–	–	–	–	–	–	–	–	–	–
Nc1ccccc1C#C/C=C\C#Cc1ccccc1	31.1	28.6 µM	20.2	20.5 µM	> 100 µM	28 µM	58.9	41.7	–	> 100	15.3	–	14.1	4.51	4.72	5.93	13.7	19.3	27.7	29.9
CCOC(=O)c1cc(/C=C/C(C)=C/C(=O)OC)oc1C	–	> 100 µM	> 100	> 100 µM	–	> 100 µM	> 100	> 100	–	> 100	–	–	–	–	–	–	–	–	–	–
CCOP(=O)(OCC)OC(C#N)c1ccc(-c2ccccc2)cc1 (stereo not given)	62.7	28.5 µM	33.2	28.5 µM	–	44.4 µM	64.6	26.8	81.7	36.8	–	–	–	–	–	–	–	–	–	–
O=C(O)C1CCCCC1C(=O)O.[NH-]C1CCC1.[NH2-].[Pt+2] (stereo not given)	–	36.2 µM	> 100	> 100 µM	> 100 µM	> 100 µM	> 100	44.5	–	36.6	–	–	16.1	> 100	7.21	> 100	84.6	14.4	15	52.8
CNCCn1c(=O)c2cc(OC)c(OC)cc2c2ccc3cc4c(cc3c21)OCO4	0.609	–	4.98	0.554 µM	0.727 µM	5.52 µM	5.53	3.09	0.968	0.854	0.126	0.167	–	0.219	0.0548	0.0888	0.127	0.0572	0.16	0.168
O=C1NC(=S)S/C1=C(/C=C(\CC(=O)c1ccccc1)c1ccc(Cl)cc1)c1ccccc1	76	> 100 µM	> 100	44.9 µM	82.1 µM	96 µM	–	> 100	47.4	61.8	38	18.2	31.8	28.2	17.9	27.1	–	42.9	21.9	23.4
CC1=C(C(=O)Nc2cccc(Cl)c2)C(c2ccccc2F)C(C(=O)Nc2cccc(Cl)c2)=C(C)N1	38.6	–	21	23.1 µM	22.4 µM	36.8 µM	54.9	64.6	21	22.3	–	–	–	–	–	–	–	–	–	–
CCN(CC)C(=S)SC	> 100	> 100 µM	–	> 100 µM	> 100 µM	> 100 µM	> 100	> 100	> 100	> 100	–	–	–	–	–	–	–	–	–	–
CN(C)CCCNC(=O)c1ccc2c(c1)oc1cc3ccccc3c(=O)n12	–	> 50 µM	> 50	21.8 µM	18.2 µM	40 µM	22	> 50	–	36.8	–	–	19.3	19.1	9.33	16.1	9.44	15.5	12.6	6.85
CN(C)/N=C(/c1nc2ccc(Cl)cc2[nH]c1=O)C(O)c1ccc(C(O)/C(=N\N(C)C)c2nc3ccc(Cl)cc3[nH]c2=O)cc1 (stereo not given)	> 100	> 100 µM	> 100	> 100 µM	> 100 µM	> 100 µM	–	> 100	> 100	> 100	–	–	–	–	–	–	–	–	–	–
COC(=O)[C@]12CCC(C)[C@H](C)[C@H]1C1=CCC3[C@@]4(C)CC[C@H](OC(C)=O)C(C)(C)C4CC[C@@]3(C)C1(C)C(O)C2 (stereo not given in full)	> 100	> 100 µM	> 100	> 100 µM	–	> 100 µM	> 100	> 100	> 100	> 100	–	–	–	–	–	–	–	–	–	–

Compound	TGI [1] [µM]	TGI [2]	TGI [3] [µM]	TGI [4]	TGI [5]	TGI [6]	TGI [7] [µM]	TGI [8] [µM]	TGI [9] [µM]	TGI [10] [µM]	GI50 [1] [µM]	GI50 [9] [µM]	GI50 [2] [µM]	GI50 [3] [µM]	GI50 [4] [µM]	GI50 [6] [µM]	GI50 [7] [µM]	GI50 [8] [µM]	GI50 [10] [µM]	GI50 [5] [µM]
C/C(=N\N(c1ccccc1)c1ccccc1)c1c(O)cc(C)oc1=O	> 100	> 100 µM	> 100	> 100 µM	–	> 100 µM	> 100	> 100	> 100	> 100	–	–	–	–	–	–	–	–	–	–
CCCCN(CCCC)c1c([N+](=O)[O-])c(=O)nc2ccccn12	48.2	> 100 µM	> 100	36.4 µM	–	> 100 µM	> 100	> 100	–	–	–	–	–	–	–	–	–	–	–	–
Cc1cc(S(=O)(=O)NC#N)c(S/C(=N\Nc2ccc([N+](=O)[O-])cc2)c2ccc(Cl)cc2)cc1Cl	2.3	26 µM	56.9	89.5 µM	> 100 µM	> 100 µM	> 100	52.1	–	> 100	–	–	11.2	24.6	21.8	26	38.1	21.1	> 100	34.4
O=[N+]([O-])c1cnn(C2=CNc3ccccc3N=C2)c1	–	> 100 µM	–	–	> 100 µM	> 100 µM	> 100	–	> 100	> 100	–	–	–	–	–	–	–	–	–	–
Cc1c(C(=O)NCCN2CCOCC2)cn2ncnc(Oc3ccc(NC(=O)Nc4ccc(Cl)c(C(F)(F)F)c4)cc3)c12	3.08	2.1 µM	–	4.23 µM	2.73 µM	–	–	–	3.71	–	1.6	2.04	0.711	–	1.76	–	–	–	–	1.22
O=C(c1ccncc1)n1nc(-c2ccccc2)c(N=Nc2ccccc2[N+](=O)[O-])c1-c1ccccc1	> 100	> 100 µM	> 100	> 100 µM	–	> 100 µM	> 100	> 100	> 100	> 100	–	–	–	–	–	–	–	–	–	–
COc1ccc(/C=C\c2cc(OC)c(O[Si](C)(C)C(C)(C)C)c(OC)c2)cc1	81.1	> 100 µM	> 100	> 100 µM	–	> 100 µM	> 100	> 100	> 100	62.4	–	–	–	–	–	–	–	–	–	–
COC(=O)c1nc(Cl)nc(Cl)c1Cl	–	33.2 µM	47.3	36.5 µM	28.2 µM	> 100 µM	> 100	38.5	68.3	–	–	–	–	–	–	–	–	–	–	–
CCC1=NC(CO)[C@H](c2ccccc2)O1 (stereo not given in full)	> 100	> 100 µM	> 100	–	> 100 µM	> 100 µM	> 100	> 100	–	> 100	–	–	–	–	–	–	–	–	–	–
CC(=O)NC(CCCCNC(=O)NCCCl)C(=O)NCc1ccccc1 (stereo not given)	–	> 100 µM	> 100	> 100 µM	> 100 µM	> 100 µM	> 100	> 100	> 100	> 100	–	–	–	–	–	–	–	–	–	–
COC(=O)c1ccccc1NC(=O)C(=O)NNC(=O)c1ccncc1	–	> 100 µM	> 100	> 100 µM	> 100 µM	–	> 100	> 100	> 100	> 100	–	–	–	–	–	–	–	–	–	–
OC1(c2ccccc2)OC(C#Cc2ccccc2)(c2ccccc2)c2ccccc21 (stereo not given)	10.1	3.07 µM	2.99	20.3 µM	5.58 µM	15.2 µM	20.4	15.4	–	20.9	–	–	–	–	–	–	–	–	–	–
COc1ccc2c(c1)/C(=C\c1c(Cl)[nH]c3ccc(OC)cc13)C(=O)N2	–	30.6 µM	34.9	74.4 µM	> 100 µM	> 100 µM	–	48.9	–	> 100	–	–	16.3	17.5	26.8	61.2	–	20	37.3	> 100
N#CCCN(CCC#N)c1ccc(C(Sc2ccccc2)C(NC(=O)c2cc([N+](=O)[O-])ccc2Cl)C(=O)Sc2ccccc2)cc1 (stereo not given)	–	5.51 µM and 5.62 µM	–	5.5 µM and 1.6 µM	5.81 µM and 3.28 µM	8.86 µM and 5.95 µM	7.19	14.3	19.7	14.3	–	–	1.85	–	–	1.27	1.85	3.77	3.06	0.415
NC(N)=NCCC1OC(=O)C2=C1c1c(O)ccc3nccc(c13)O2 (stereo not given)	> 100	> 100 µM	> 100	> 100 µM	> 100 µM	> 100 µM	–	> 100	> 100	> 100	> 100	> 100	> 100	> 100	> 100	23.8	–	> 100	1.73	> 100
Cc1cccc(C)c1NC(=O)C1C(=O)N(c2c(C)cccc2C)C(=O)/C1=N\NC(N)=S (stereo not given)	> 100	> 100 µM	> 100	> 100 µM	> 100 µM	> 100 µM	–	> 100	> 100	> 100	–	–	–	–	–	–	–	–	–	–
COC(=O)C(=O)C(C(=O)C(=O)Nc1cccc(C(C)=O)c1)c1nc2ccccc2[nH]c1=O (stereo not given)	> 100	–	> 100	> 100 µM	> 100 µM	> 100 µM	> 100	> 100	> 100	> 100	–	–	–	–	–	–	–	–	–	–
Cc1ccc(-c2cc(-c3ccco3)c(C#N)c(=O)n2C2OC(OC(=O)c3ccccc3)C(OC(=O)c3ccccc3)C2OC(=O)c2ccccc2)cc1 (stereo not given)	> 100	> 100 µM	> 100	> 100 µM	88.4 µM	> 100 µM	> 100	> 100	> 100	–	–	–	–	–	–	–	–	–	–	–
COc1ccc(-c2oc3c(OC)c(OC)c(OC)c(OC)c3c(=O)c2OC)cc1OC	> 100	> 100 µM	> 100	49.4 µM	–	35.2 µM	–	> 100	> 100	> 100	–	–	–	–	–	–	–	–	–	–
